This note sets out measurements from patent publication US20240058292A1, “PHARMACEUTICAL COMPOSITION FOR TREATING CANCER, AND PREPARATION METHOD AND USE THEREOF” (priority 2020, published 2024).

Molecules are shown by their SMILES.

Data set [1] deals with Human brain astroblastoma cell line U-87MG. Kind of data set: Tumor-suppressing effect on subcutaneously transplanted U-87MG tumors in nude mice (tumor weight, IRTW). The data set is classed as in vivo, BALB/C-nu/nu mice. The following applies: intraperitoneal injection; for Tumor-suppressing rate (%): IRTW vs model group; for Tumor weight: U-87MG tumor, end of experiment, mean±SD. On the procedure:
4. Laboratory animals • Animal species: BALB/C-nu/nu mice • Animal grade: SPF grade • Gender and quantity:42 females • Animal age at the start of an experiment: 6 weeks old • Animal body weight at the start of an experiment: 18±2 g • Animal source: Vital River Laboratory Animal Technology Co., Ltd.
Cell source and cultivation conditions: Human brain astroblastoma cell line U-87MG: which came from the Cell Resource Center of the Shanghai Institutes for Biological Sciences (SIBS); medium: MEM medium including 1% penicillin-streptomycin sulfate mixed solution (100 ×) and 10% fetal bovine serum (FBS) (from Australia); cultivation conditions: 5% CO2 and 37° C.; and the cell line was frozen by Marine Biomedical Research Institute of Qingdao.
The cell line U-87MG stored in liquid nitrogen was recovered, inoculated in a corresponding medium including 10% FBS, 100 U/mL penicillin, and 100 […] streptomycin, and cultivated in the cell culture incubator at 37° C. and 5% CO2. The cells were passaged every two days.
After the cells were passaged four times, resulting cells were collected through digestion with 0.05% trypsin-EDTA, counted under a microscope, and resuspended with a medium to obtain a cell suspension with 5×10^7 cells/mL; a mouse was routinely disinfected, and 0.2 mL of the cell suspension was subcutaneously inoculated in an axillary region of a right forelimb of the mouse; and a resulting tumor tissue was aseptically taken out, weighed, diluted with a sodium chloride injection according to a mass-to-volume ratio of 1:4, and then ground, then a mouse was routinely disinfected, and 0.2 mL of a resulting suspension was subcutaneously inoculated in an axillary region of a right forelimb of the mouse for passage, where the passage was continuously conducted twice. During this period, the mice were raised normally, and the states and tumor growth conditions of the mice were observed and recorded every week.
When a tumor volume in a tumor-bearing mouse to be passaged was about 1,200 mm 3, a tumor was ground and transplanted by a same method for molding. After the tumor inoculation was completed, a body weight of a mouse was measured, and mice were randomly selected and divided into 6 groups with 7 mice per group. After tumor colonization, the administration was started, which was recorded as Day 1 (D1). […]
After the experiment was completed, tumor tissues of animals that died unexpectedly and surviving animals that were euthanized each were peeled off and weighed, and a tumor weight difference of each group was calculated to further calculate a tumor-suppressing rate (IRTW) according to the following formula: […]
It was required in this scheme that measured and observed data results were manually recorded in appropriate forms or directly acquired by a computer. […]

A short description of data set [2]: General clinical observation and body weight of tumor-bearing mice during administration. Conditions: mouse, in vivo.
Description: According to body weights, animals were randomly divided into 6 groups, with 7 animals per group.
Observed animals: All animals
Observation frequency and time: The animals were observed once before each time of administration during the experiment, and administration and observation results were recorded.
Observation content: including, but not limited to, tumor growth, animal mental states, eating and drinking conditions, or the like.
Detected animals: All animals
Detection time: A body weight of an animal was measured and recorded when grouping (namely, before the first administration) (D1), before each subsequent administration, and before euthanasia.
A body weight and relevant information of an animal were measured and recorded if the animal died unexpectedly.
Where [3] appears, read: 5-Fluorouracil 18 mg/kg, twice a week.

On to `Cn1nnc2c(C(N)=O)ncn2c1=O` [TMZ, temozolomide], for which, in data set [1] (TMZ 25 mg/kg, once every day), the “Tumor-suppressing rate (%)” value is on record as 99.5% and the Tumor weight is on record as 0.0134 ± 0.0091.

Take `O=c1[nH]cc(F)c(=O)[nH]1` [5-Fluorouracil]: in data set [1] (setting [3]), the “Tumor-suppressing rate (%)” value amounted to 52.7% and the Tumor weight stood at 1.3305 ± 0.6525. Moreover, in data set [2], the “Body weight of mice during administration” value was “reduced at a late stage of administration”.
